Measured values reported in ChEMBL document CHEMBL4196115 (ACS Med Chem Lett, 2018).
In brackets after ≈: the same amount, converted by molar mass. Values belong to the compound of their own block, whether it stands above or below them.

Assays:
[1] = target: T1, Muscarinic acetylcholine receptor M1 (Homo sapiens) (UniProt P11229); assay: Positive allosteric modulation of human muscarinic acetylcholine receptor M1 expressed in CHO cells assessed as increase in acetylcholine-induced calcium mobilization pretreated for 4 mins followed by acetylcholine addition and measured after 4 mins by Fluo-4-AM dye based FLIPR assay; assay type: functional, cell-based
T1 sequence (whole entry): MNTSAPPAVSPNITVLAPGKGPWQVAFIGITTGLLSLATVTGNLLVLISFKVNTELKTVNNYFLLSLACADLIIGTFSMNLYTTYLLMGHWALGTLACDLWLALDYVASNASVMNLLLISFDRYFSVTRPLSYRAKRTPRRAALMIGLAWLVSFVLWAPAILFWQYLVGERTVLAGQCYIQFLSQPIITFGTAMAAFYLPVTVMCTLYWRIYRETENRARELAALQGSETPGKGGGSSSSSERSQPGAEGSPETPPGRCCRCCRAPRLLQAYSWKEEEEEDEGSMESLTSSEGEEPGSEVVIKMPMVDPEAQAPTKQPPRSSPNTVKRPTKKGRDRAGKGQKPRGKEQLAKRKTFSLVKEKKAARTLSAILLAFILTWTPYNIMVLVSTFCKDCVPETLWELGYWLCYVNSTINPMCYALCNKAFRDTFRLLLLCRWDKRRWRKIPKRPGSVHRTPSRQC

[2] = Ratio of total drug level in cerebrospinal fluid to unbound plasma concentration in Sprague-Dawley rat at 10 mg/kg, po; assay type: ADME, organism-based, CSF/Plasma; conditions: in vivo
[3] = Kinetic solubility of the compound at pH 7; assay type: physicochemical; conditions: buffer, read-out: Kinetic_solubility
MDR1 (P-gp, ABCB1) [4] = target: T2, MDR1 (P-gp, ABCB1) (Homo sapiens, UniProt P08183); assay: Substrate activity at MDR1 (unknown origin) assessed as efflux ratio of permeability from basolateral to apical side over apical to basolateral side; assay type: ADME; conditions: not told
[5] = Kinetic solubility of the compound at pH 2; assay type: physicochemical; conditions: buffer, read-out: Kinetic_solubility
[6] = target: Voltage-gated inwardly rectifying potassium channel KCNH2 (Homo sapiens, UniProt Q12809)
[7] = Lipophilicity, log D of the compound by HPLC method; assay type: physicochemical
[8] = Terminal half life in Sprague-Dawley rat at 10 mg/kg, po or 2 mg/kg, iv; assay type: ADME, organism-based; conditions: in vivo, read-out: beta t1/2 (converted)
Cytochrome P450 2C9 = Cytochrome P450 2C9 (Homo sapiens, UniProt P11712); assay: Competitive reversible inhibition of CYP2C9 (unknown origin); assay type: ADME
Cytochrome P450 3A4 = Cytochrome P450 3A4 (Homo sapiens, UniProt P08684); assay: Induction of CYP3A4 activity in human hepatocytes at 0.1 to 10 uM; assay type: ADME, cell-based
[9] = Clearance in rhesus monkey at 1 mg/kg, po or 0.5 mg/kg, iv; assay type: ADME, organism-based, Macaca mulatta; conditions: in vivo
[10] = Volume of distribution at steady state in Sprague-Dawley rat at 10 mg/kg, po or 2 mg/kg, iv; assay type: ADME, organism-based; conditions: in vivo, read-out: Vdss
[11] = Intrinsic clearance in human microsomes; assay type: ADME, Microsome
[12] = target: T3, Polyunsaturated fatty acid 5-lipoxygenase (Homo sapiens, UniProt P09917); assay: Inhibition of recombinant human 5-LOX using arachidonic acid as substrate measured after 5 mins by fluorescence assay
T3 sequence (P09917 whole entry): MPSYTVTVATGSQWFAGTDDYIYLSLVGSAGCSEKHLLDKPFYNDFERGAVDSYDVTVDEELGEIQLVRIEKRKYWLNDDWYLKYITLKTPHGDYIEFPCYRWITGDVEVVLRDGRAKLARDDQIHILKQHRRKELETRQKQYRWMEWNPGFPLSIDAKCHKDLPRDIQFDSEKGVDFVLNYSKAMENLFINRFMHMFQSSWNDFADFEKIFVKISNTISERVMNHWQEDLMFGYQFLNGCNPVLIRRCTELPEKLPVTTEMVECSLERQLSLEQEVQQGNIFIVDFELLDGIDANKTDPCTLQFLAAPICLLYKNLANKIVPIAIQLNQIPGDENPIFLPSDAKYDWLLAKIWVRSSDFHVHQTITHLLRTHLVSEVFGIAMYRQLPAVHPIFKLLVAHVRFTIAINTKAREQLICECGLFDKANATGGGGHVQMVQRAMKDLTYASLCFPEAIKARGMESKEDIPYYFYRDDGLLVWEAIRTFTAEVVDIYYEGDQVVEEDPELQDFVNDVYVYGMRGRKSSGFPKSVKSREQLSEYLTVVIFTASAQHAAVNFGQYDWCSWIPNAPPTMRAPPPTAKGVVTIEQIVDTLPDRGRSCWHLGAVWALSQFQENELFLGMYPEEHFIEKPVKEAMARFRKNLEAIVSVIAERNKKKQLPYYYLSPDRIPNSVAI

[13] = Volume of distribution at steady state in rhesus monkey at 1 mg/kg, po or 0.5 mg/kg, iv; assay type: ADME, organism-based, Macaca mulatta; conditions: in vivo, read-out: Vdss
[14] = Equilibrium solubility of the compound at pH 8 to 10; assay type: physicochemical; conditions: buffer
MDR1 (P-gp, ABCB1) [15] = target: T2, MDR1 (P-gp, ABCB1); assay: Substrate activity at MDR1 (unknown origin) assessed as apparent permeability; assay type: ADME; conditions: not told
[16] = Inhibition of PDE4 (unknown origin); set-up: species or system Homo sapiens
[17] = Oral bioavailability in Mongrel dog at 3 mg/kg; assay type: ADME, organism-based, Canis lupus familiaris; conditions: in vivo
[18] = Clearance in Mongrel dog at 3 mg/kg, po or 1 mg/kg, iv; assay type: ADME, organism-based, Canis lupus familiaris; conditions: in vivo
Hepatocyte = assay: Induction of CYP3A4 mRNA expression in human hepatocytes at 0.1 to 10 uM; assay type: ADME, cell-based
[19] = Terminal half life in Mongrel dog at 3 mg/kg, po or 1 mg/kg, iv; assay type: ADME, organism-based, Canis lupus familiaris; conditions: in vivo, read-out: beta t1/2 (converted)
[20] = Oral bioavailability in Sprague-Dawley rat at 10 mg/kg; assay type: ADME, organism-based; conditions: in vivo
[21] = Volume of distribution at steady state in Mongrel dog at 3 mg/kg, po or 1 mg/kg, iv; assay type: ADME, organism-based, Canis lupus familiaris; conditions: in vivo, read-out: Vdss
[22] = Clearance in Sprague-Dawley rat at 10 mg/kg, po or 2 mg/kg, iv; assay type: ADME, organism-based; conditions: in vivo
[23] = Terminal half life in rhesus monkey at 1 mg/kg, po or 0.5 mg/kg, iv; assay type: ADME, organism-based, Macaca mulatta; conditions: in vivo, read-out: beta t1/2 (converted)
[24] = Equilibrium solubility of the compound at pH <4; assay type: physicochemical
[25] = Oral bioavailability in rhesus monkey at 1 mg/kg; assay type: ADME, organism-based, Macaca mulatta; conditions: in vivo
[26] = Equilibrium solubility of the compound in fasted state simulated intestinal fluid using crystalline compound; assay type: physicochemical
[27] = Equilibrium solubility of the compound in simulated gastric fluid using crystalline compound; assay type: physicochemical

Sequence of Voltage-gated inwardly rectifying potassium channel KCNH2 (Q12809 whole entry): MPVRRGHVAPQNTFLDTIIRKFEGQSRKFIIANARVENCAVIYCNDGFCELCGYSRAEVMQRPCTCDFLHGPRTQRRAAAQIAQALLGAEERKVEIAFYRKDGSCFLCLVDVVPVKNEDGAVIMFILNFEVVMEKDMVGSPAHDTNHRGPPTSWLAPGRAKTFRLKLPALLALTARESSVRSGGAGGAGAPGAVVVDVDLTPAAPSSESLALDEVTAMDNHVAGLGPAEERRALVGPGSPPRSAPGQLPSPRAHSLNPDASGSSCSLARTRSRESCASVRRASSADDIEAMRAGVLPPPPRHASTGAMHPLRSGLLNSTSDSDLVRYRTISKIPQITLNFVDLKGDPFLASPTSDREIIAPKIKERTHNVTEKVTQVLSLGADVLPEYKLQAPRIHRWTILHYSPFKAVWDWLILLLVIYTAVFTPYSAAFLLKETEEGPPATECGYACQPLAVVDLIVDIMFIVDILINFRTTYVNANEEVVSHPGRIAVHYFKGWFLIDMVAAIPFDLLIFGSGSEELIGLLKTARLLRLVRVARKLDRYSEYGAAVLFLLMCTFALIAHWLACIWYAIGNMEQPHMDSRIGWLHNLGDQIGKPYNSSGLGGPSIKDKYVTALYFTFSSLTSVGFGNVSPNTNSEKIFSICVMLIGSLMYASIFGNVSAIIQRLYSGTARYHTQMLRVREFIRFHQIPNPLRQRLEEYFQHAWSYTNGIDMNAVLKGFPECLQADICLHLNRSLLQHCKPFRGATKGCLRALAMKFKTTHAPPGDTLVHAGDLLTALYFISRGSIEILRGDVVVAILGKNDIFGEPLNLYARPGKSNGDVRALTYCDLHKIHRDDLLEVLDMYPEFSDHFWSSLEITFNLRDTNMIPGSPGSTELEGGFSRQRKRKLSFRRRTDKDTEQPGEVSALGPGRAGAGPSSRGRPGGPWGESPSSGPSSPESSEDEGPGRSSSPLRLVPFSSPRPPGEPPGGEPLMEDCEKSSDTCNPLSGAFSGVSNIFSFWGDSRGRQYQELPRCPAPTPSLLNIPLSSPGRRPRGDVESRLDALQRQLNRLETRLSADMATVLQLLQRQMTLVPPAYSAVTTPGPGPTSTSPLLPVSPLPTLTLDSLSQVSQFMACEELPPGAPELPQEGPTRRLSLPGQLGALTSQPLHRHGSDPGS
T2 sequence (P08183 whole entry): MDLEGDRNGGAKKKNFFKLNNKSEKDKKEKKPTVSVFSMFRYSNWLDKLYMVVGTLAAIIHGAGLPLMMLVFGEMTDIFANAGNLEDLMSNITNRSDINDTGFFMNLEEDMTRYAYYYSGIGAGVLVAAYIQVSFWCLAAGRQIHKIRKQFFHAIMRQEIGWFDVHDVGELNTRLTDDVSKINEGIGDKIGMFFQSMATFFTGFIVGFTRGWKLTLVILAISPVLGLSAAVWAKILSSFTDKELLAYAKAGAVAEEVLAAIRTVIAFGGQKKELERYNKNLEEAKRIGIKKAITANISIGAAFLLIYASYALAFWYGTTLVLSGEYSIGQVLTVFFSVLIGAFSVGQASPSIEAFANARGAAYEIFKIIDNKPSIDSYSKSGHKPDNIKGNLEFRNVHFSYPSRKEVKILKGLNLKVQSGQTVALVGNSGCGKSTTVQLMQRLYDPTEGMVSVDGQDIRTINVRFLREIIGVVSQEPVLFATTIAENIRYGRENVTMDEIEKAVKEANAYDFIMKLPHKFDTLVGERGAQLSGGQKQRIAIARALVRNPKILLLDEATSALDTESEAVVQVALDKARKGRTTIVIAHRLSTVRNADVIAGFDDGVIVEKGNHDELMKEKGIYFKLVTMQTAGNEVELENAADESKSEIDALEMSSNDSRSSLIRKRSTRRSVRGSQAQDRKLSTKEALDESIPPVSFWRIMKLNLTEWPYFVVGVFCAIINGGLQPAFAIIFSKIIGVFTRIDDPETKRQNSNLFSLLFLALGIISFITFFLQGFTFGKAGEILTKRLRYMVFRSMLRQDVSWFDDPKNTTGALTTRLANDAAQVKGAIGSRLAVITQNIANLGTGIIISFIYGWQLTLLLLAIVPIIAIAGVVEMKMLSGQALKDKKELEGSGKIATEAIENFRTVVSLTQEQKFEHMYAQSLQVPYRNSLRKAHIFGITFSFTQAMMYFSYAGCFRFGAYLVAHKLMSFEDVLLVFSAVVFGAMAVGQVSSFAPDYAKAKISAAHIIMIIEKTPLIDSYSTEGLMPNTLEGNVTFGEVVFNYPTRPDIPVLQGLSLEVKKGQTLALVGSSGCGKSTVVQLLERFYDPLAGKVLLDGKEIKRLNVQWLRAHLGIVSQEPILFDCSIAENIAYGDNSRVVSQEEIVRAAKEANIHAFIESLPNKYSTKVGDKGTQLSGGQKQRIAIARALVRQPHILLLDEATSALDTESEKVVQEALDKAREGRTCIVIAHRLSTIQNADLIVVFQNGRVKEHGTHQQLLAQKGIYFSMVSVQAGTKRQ
Sequence of Cytochrome P450 3A4 (P08684 whole entry): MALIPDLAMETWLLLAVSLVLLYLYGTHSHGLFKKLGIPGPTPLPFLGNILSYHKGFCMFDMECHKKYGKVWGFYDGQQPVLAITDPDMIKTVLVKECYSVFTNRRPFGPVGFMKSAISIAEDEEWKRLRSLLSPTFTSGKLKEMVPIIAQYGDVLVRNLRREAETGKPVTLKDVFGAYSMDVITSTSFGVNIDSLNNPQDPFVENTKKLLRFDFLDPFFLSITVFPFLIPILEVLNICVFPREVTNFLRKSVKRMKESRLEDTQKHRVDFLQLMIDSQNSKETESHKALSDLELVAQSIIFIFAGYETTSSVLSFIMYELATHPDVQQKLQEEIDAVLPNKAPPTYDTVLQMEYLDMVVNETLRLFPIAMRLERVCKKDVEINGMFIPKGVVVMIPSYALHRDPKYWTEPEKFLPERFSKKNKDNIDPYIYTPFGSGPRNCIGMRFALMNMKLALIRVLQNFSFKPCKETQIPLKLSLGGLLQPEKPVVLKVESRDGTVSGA
Sequence of Cytochrome P450 2C9 (P11712 whole entry): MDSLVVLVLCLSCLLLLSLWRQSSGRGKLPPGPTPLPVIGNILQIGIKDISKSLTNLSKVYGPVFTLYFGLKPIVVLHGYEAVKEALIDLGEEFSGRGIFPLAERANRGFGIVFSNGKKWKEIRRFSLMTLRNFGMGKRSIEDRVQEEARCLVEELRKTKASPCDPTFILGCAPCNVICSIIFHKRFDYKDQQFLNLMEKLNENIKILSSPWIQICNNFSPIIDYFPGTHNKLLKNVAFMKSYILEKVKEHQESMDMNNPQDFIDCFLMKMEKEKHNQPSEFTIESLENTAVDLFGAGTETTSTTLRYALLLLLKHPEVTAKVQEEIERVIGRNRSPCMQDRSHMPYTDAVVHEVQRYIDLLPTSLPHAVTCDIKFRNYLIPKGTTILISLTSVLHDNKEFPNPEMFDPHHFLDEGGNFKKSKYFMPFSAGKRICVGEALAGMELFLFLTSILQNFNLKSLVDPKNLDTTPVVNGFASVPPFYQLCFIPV

SMILES: COc1ccc(Cn2cc3c(=O)n(-c4ccccc4)nc-3c3ccccc32)cc1
IP [1]: 8.9 µM

SMILES: Cc1ccc(Cc2cc3c(=O)n([C@H]4CCCC[C@@H]4O)cnc3c3ccccc23)cn1 [MK-7622]
half-life [8]: 1.3 h | IC50 (Cytochrome P450 2C9): 13.3 µM | Activity (Cytochrome P450 3A4): Not Active | clearance [9]: 7.6 mL/min/kg | Vd [10]: 0.94 L/kg | CLint scaled [11]: 15 mL/min/kg | IC50 [12]: 4.4 µM | Vd [13]: 1.2 L/kg | solubility thermodynamic [14]: < 1 µg/mL | solubility kinetic [3]: 17 µM (≈ 6.79 µg/mL) | Papp (MDR1 (P-gp, ABCB1) [15]): 33 ×10⁻⁶ cm/s | IC50 [16]: 2.1 µM | bioavailability [17]: 76% | clearance [18]: 4.5 mL/min/kg | Activity (Hepatocyte): Not Active | half-life [19]: 8.7 h | bioavailability [20]: 56% | Vd [21]: 2.4 L/kg | solubility kinetic [5]: 191 µM (≈ 76.3 µg/mL) | clearance [22]: 18.9 mL/min/kg | logD [7]: 2.6 | half-life [23]: 1.8 h | solubility thermodynamic [24]: 6000 to 9000 µg/mL (≈ 15 to 22.5 mM) | bioavailability [25]: 40%

SMILES: COc1ccc(Cn2cc3c(=O)onc-3c3ccccc32)cc1
IP [1]: > 100 µM

SMILES: Cc1ccc(Cc2cc3c(=O)n([C@H]4CCCC[C@@H]4O)cnc3c3ccccc23)cn1.O=C(O)/C=C/C(=O)O
solubility thermodynamic [26]: 40 µg/mL | solubility thermodynamic [27]: 2300 µg/mL

SMILES: COc1ccc(Cn2cc3c(=O)[nH]nc-3c3ccccc32)cc1
IP [1]: 57 µM

SMILES: COc1ccc(Cn2cc(C(=O)O)c(=O)c3ccccc32)cc1
IP [1]: 0.66 µM

SMILES: COc1ccc(Cn2cc3c(=O)n(-c4ccccc4F)nc-3c3ccccc32)cc1
IP [1]: 0.41 µM

More lines, main results first:

IP [1]: 0.013 to 0.015 µM | Ratio [2]: 0.9 | solubility kinetic [3]: < 2 µM | efflux ratio (MDR1 (P-gp, ABCB1) [4]): 1.1 | solubility kinetic [5]: < 2 µM | logD [7]: 3.1
SMILES: O=c1c2cc(Cc3ccc(Cl)nc3)c3ccccc3c2ncn1[C@H]1CCCC[C@@H]1O
IC50 [6]: 13 µM

IP [1]: 0.042 µM | Ratio [2]: 0.5 | solubility kinetic [3]: 34 µM (≈ 13.1 µg/mL) | solubility kinetic [5]: 181 µM (≈ 69.8 µg/mL) | logD [7]: 2.4
SMILES: O=c1c2cc(Cc3cccnc3)c3ccccc3c2ncn1[C@H]1CCCC[C@@H]1O (relative stereo)
IC50 [6]: 12 µM

IP [1]: 0.018 µM | Ratio [2]: 1 | solubility kinetic [3]: < 3 µM | solubility kinetic [5]: 71 µM (≈ 29.5 µg/mL) | logD [7]: 3
SMILES: COc1ccc(Cc2cc3c(=O)n([C@H]4CCCC[C@@H]4O)cnc3c3ccccc23)cn1
IC50 [6]: 6.4 µM

IP [1]: 3.3 µM
SMILES: COc1ccc(Cc2cc3c(=O)n(-c4ccccc4F)ccc3c3ccccc23)cc1

IP [1]: 0.82 µM
SMILES: COc1ccc(Cc2cc3c(=O)n(-c4ccccc4F)cnc3c3ccccc23)cc1

IP [1]: 0.22 µM
SMILES: COc1ccc(Cc2cc3c(=O)n([C@H]4CCCC[C@@H]4O)cnc3c3ccccc23)cc1

IP [1]: 0.052 µM
SMILES: COc1ccc(Cc2cc3c(c4ccccc24)CN([C@H]2CCCC[C@@H]2O)C3=O)cc1

IP [1]: 0.021 µM | solubility kinetic [3]: < 2 µM | solubility kinetic [5]: 102 µM (≈ 44 µg/mL) | logD [7]: 3.2
SMILES: CSc1ccc(Cc2cc3c(=O)n([C@H]4CCCC[C@@H]4O)cnc3c3ccccc23)cn1
IC50 [6]: 7.5 µM
